Experimental data reported in patent US8686044B2, “Amide derivative, pest control agent containing the amide derivative, and use of the amide derivative” (Mitsui Chemicals Agro, Inc., priority 2008, dated 2014).

Assays:
Type in all cases: in vivo
[1] = tested on: Spodoptera litura; assay: Pesticidal test against Spodoptera litura (cabbage leaf dip); settings: foliar, 144 h, 2-stage larvae, examined after 6 days, 25° C., read-out: pesticidal rate; for pest or weed control at 1 ppm: concentration 1 ppm
Method in brief: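 Cabbage leaf pieces dipped 30 seconds in compound solution at a predetermined concentration and air-dried, then offered to second-stage larvae, five per group in two replicates. Held at 25° C. Living and dead larvae counted after 6 days.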

[2] = tested on: Plutella xylostella; assay: Pesticidal test against Plutella xylostella (cabbage leaf dip); settings: foliar, 144 h, 2-stage larvae, examined after 6 days, 25° C., read-out: pesticidal rate; for pest or weed control at 1 ppm: concentration 1 ppm; for pest or weed control at 10 ppm: concentration 10 ppm
Method in brief: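 Second-stage larvae (5 per group, two replicates) were released onto air-dried cabbage leaf discs that had been immersed for 30 seconds in compound solution at a set concentration. Mortality was scored after 6 days at 25° C.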

[3] = tested on: Laodelphax striatellus; assay: Pesticidal test against Laodelphax striatellus (rice seedling spray); settings: 144 h, concentration 100 ppm, 3-stage larvae, examined after 6 days, 25° C., read-out: pesticidal rate
Experimental: Pesticidal Test against Laodelphax striatellus
2.5 ml of an acetone solution in which a test compound had been prepared at a predetermined concentration was sprayed on rice seedlings, air-dried, and then put into a glass tube having a diameter of 3 cm and a height of 13 cm, having water therein, and 3-stage larvae of Laodelphax striatellus were released and the tube was capped. They were left to stand in a thermostatic chamber at 25° C., and the numbers of the living pests and the dead pests were examined after 6 days. The test was carried out with ten larvae per group in two replicates.

O=C(Nc1c(Br)cc(C(F)(C(F)(F)F)C(F)(F)F)cc1C(F)(F)F)c1cccc(NC(=O)c2cccnc2Cl)c1 [6-304]
≥ 70%: pest or weed control at 1 ppm [1] | pest or weed control at 1 ppm [2] | pest or weed control at 100 ppm [3]

CN(C(=O)c1ccc(C#N)cc1)c1cc(C(=O)Nc2c(Cl)cc(C(F)(C(F)(F)F)C(F)(F)F)cc2C(F)(F)F)ccc1C#N [2-491, N-(2-chloro-4-(perfluoropropan-2-yl)-6-(trifluoromethyl)phenyl)-4-cyano-3-(4-cyano-N-methylbenzamide)benzamide]
≥ 70%: pest or weed control at 1 ppm [1] | pest or weed control at 1 ppm [2] | pest or weed control at 100 ppm [3]

O=C(Nc1cccc(C(=O)Nc2c(I)cc(C(F)(C(F)(F)F)C(F)(F)F)cc2I)c1F)c1ccc(Cl)nc1 [6-1303]
≥ 70%: pest or weed control at 1 ppm [1] | pest or weed control at 1 ppm [2] | pest or weed control at 100 ppm [3]

CN(C(=O)c1ccc(F)cc1)c1cccc(C(=O)Nc2c(Br)cc(C(F)(C(F)(F)F)C(F)(F)C(F)(F)F)cc2Br)c1 (stereo not drawn) [7-5907]
≥ 70%: pest or weed control at 1 ppm [1] | pest or weed control at 1 ppm [2] | pest or weed control at 100 ppm [3]

CN(C(=O)c1cccc(F)c1)c1cccc(C(=O)Nc2c(Br)cc(C(F)(C(F)(F)F)C(F)(F)C(F)(F)F)cc2Br)c1F (stereo not drawn) [7-1184]
≥ 70%: pest or weed control at 1 ppm [1] | pest or weed control at 1 ppm [2] | pest or weed control at 100 ppm [3]

O=C(Nc1cccc(C(=O)Nc2c(I)cc(C(F)(C(F)(F)F)C(F)(F)F)cc2C(F)(F)F)c1F)c1ccc(Cl)cc1Cl [6-1754]
≥ 70%: pest or weed control at 1 ppm [1] | pest or weed control at 1 ppm [2] | pest or weed control at 100 ppm [3]

CN(C(=O)c1ccc(F)cc1)c1cccc(C(=O)Nc2c(I)cc(C(F)(C(F)(F)F)C(F)(F)C(F)(F)F)cc2I)c1F (stereo not drawn) [7-1341]
≥ 70%: pest or weed control at 1 ppm [1] | pest or weed control at 1 ppm [2] | pest or weed control at 100 ppm [3]

O=C(Nc1cccc(C(=O)Nc2c(Br)cc(C(F)(C(F)(F)F)C(F)(F)F)cc2C(F)(F)C(F)(F)F)c1F)c1ccccc1 [6-5910]
≥ 70%: pest or weed control at 1 ppm [1] | pest or weed control at 1 ppm [2] | pest or weed control at 100 ppm [3]

O=C(Nc1cccc(C(=O)Nc2c(I)cc(C(F)(C(F)(F)F)C(F)(F)F)cc2C(F)(F)F)c1F)c1cccnc1Cl [6-1766]
≥ 70%: pest or weed control at 1 ppm [1] | pest or weed control at 1 ppm [2] | pest or weed control at 100 ppm [3]

CN(C(=O)c1cccc(C#N)c1)c1cccc(C(=O)Nc2c(Br)cc(C(F)(C(F)(F)F)C(F)(F)F)cc2C(F)(F)F)c1 [7-288]
≥ 70%: pest or weed control at 1 ppm [1] | pest or weed control at 1 ppm [2] | pest or weed control at 100 ppm [3]

CN(C(=O)c1ccc(C#N)cc1Cl)c1cccc(C(=O)Nc2c(Br)cc(C(F)(C(F)(F)F)C(F)(F)F)cc2C(F)(F)F)c1 [7-301]
≥ 70%: pest or weed control at 1 ppm [1] | pest or weed control at 1 ppm [2] | pest or weed control at 100 ppm [3]

CN(C(=O)c1ccc(Cl)nc1)c1cccc(C(=O)Nc2c(Br)cc(C(F)(C(F)(F)F)C(F)(F)F)cc2C(F)(F)F)c1 [7-311]
≥ 70%: pest or weed control at 1 ppm [1] | pest or weed control at 1 ppm [2] | pest or weed control at 100 ppm [3]

CN(C(=O)c1cccc(F)c1)c1cccc(C(=O)Nc2c(I)cc(C(F)(C(F)(F)F)C(F)(F)C(F)(F)F)cc2I)c1 (stereo not drawn) [7-5904]
≥ 70%: pest or weed control at 1 ppm [1] | pest or weed control at 1 ppm [2] | pest or weed control at 100 ppm [3]

CN(C(=O)c1cccc([N+](=O)[O-])c1)c1cccc(C(=O)Nc2c(Br)cc(C(F)(C(F)(F)F)C(F)(F)F)cc2C(F)(F)F)c1 [7-285]
≥ 70%: pest or weed control at 1 ppm [1] | pest or weed control at 10 ppm [2] | pest or weed control at 100 ppm [3]

O=C(Nc1cccc(C(=O)Nc2c(I)cc(C(F)(C(F)(F)F)C(F)(F)C(F)(F)F)cc2I)c1)c1ccccc1 (stereo not drawn) [6-71]
≥ 70%: pest or weed control at 1 ppm [1] | pest or weed control at 1 ppm [2] | pest or weed control at 100 ppm [3]

O=C(Nc1cccc(C(=O)Nc2c(I)cc(C(F)(C(F)(F)F)C(F)(F)C(F)(F)F)cc2I)c1)c1cccc(F)c1 (stereo not drawn) [6-5903]
≥ 70%: pest or weed control at 1 ppm [1] | pest or weed control at 1 ppm [2] | pest or weed control at 100 ppm [3]

CN(C(=O)c1cccc(F)c1)c1cccc(C(=O)Nc2c(Br)cc(C(F)(C(F)(F)F)C(F)(F)C(F)(F)F)cc2Br)c1 (stereo not drawn) [7-5906]
≥ 70%: pest or weed control at 1 ppm [1] | pest or weed control at 1 ppm [2] | pest or weed control at 100 ppm [3]

CN(C(=O)c1cccnc1Cl)c1cccc(C(=O)Nc2c(Br)cc(C(F)(C(F)(F)F)C(F)(F)F)cc2Br)c1F [7-1140]
≥ 70%: pest or weed control at 1 ppm [1] | pest or weed control at 1 ppm [2] | pest or weed control at 100 ppm [3]

CN(C(=O)c1cccnc1Cl)c1cccc(C(=O)Nc2c(Br)cc(C(F)(F)C(F)(F)F)cc2C(F)(F)F)c1 [7-5912]
≥ 70%: pest or weed control at 10 ppm ([1]; concentration 10 ppm) | pest or weed control at 10 ppm [2] | pest or weed control at 100 ppm [3]

N#Cc1ccc(C(=O)Nc2cc(C(=O)Nc3c(Cl)cc(C(F)(C(F)(F)F)C(F)(F)F)cc3C(F)(F)F)ccc2C#N)cc1 [1-491]
≥ 70%: pest or weed control at 1 ppm [1] | pest or weed control at 1 ppm [2] | pest or weed control at 100 ppm [3]

CN(C(=O)c1ccc(F)cc1)c1cccc(C(=O)Nc2c(I)cc(C(F)(C(F)(F)F)C(F)(F)F)cc2C(F)(F)F)c1 [7-427]
≥ 70%: pest or weed control at 1 ppm [1] | pest or weed control at 1 ppm [2] | pest or weed control at 100 ppm [3]

CN(C(=O)c1ccccc1)c1cc(C(=O)Nc2c(Br)cc(C(F)(C(F)(F)F)C(F)(F)F)cc2C(F)(F)F)ccc1F [7-3348]
≥ 70%: pest or weed control at 1 ppm [1] | pest or weed control at 1 ppm [2] | pest or weed control at 100 ppm [3]

O=C(Nc1cccc(C(=O)Nc2c(Br)cc(C(F)(C(F)(F)F)C(F)(F)F)cc2C(F)(F)F)c1)c1cccc(F)c1 [6-270]
≥ 70%: pest or weed control at 1 ppm [1] | pest or weed control at 1 ppm [2] | pest or weed control at 100 ppm [3]

O=C(Nc1cccc(C(=O)Nc2c(I)cc(C(F)(C(F)(F)F)C(F)(F)C(F)(F)F)cc2I)c1F)c1ccccc1F (stereo not drawn) [6-1339]
≥ 70%: pest or weed control at 1 ppm [1] | pest or weed control at 1 ppm [2] | pest or weed control at 100 ppm [3]

O=C(Nc1c(Br)cc(C(F)(C(F)(F)F)C(F)(F)F)cc1C(F)(F)F)c1cccc(NC(=O)c2c(F)cccc2F)c1 [6-290]
≥ 70%: pest or weed control at 1 ppm [1] | pest or weed control at 1 ppm [2] | pest or weed control at 100 ppm [3]

CN(C(=O)c1ccccc1)c1cccc(C(=O)N(C)c2c(Br)cc(C(F)(C(F)(F)F)C(F)(F)F)cc2C(F)(F)F)c1 [9-270]
≥ 70%: pest or weed control at 1 ppm [1] | pest or weed control at 1 ppm [2] | pest or weed control at 100 ppm [3]

CN(C(=O)c1ccccc1F)c1cccc(C(=O)Nc2c(I)cc(C(F)(C(F)(F)F)C(F)(F)C(F)(F)F)cc2I)c1F (stereo not drawn) [7-1339]
≥ 70%: pest or weed control at 1 ppm [1] | pest or weed control at 1 ppm [2] | pest or weed control at 100 ppm [3]

O=C(Nc1c(Br)cc(C(F)(C(F)(F)F)C(F)(F)F)cc1C(F)(F)F)c1cccc(NC(=O)c2ccccc2F)c1 [6-269]
≥ 70%: pest or weed control at 1 ppm [1] | pest or weed control at 10 ppm [2] | pest or weed control at 100 ppm [3]

CN(C(=O)c1ccc(C#N)cc1)c1cccc(C(=O)Nc2c(Br)cc(C(F)(C(F)(F)F)C(F)(F)C(F)(F)F)cc2Br)c1F (stereo not drawn) [7-1203]
≥ 70%: pest or weed control at 1 ppm [1] | pest or weed control at 1 ppm [2] | pest or weed control at 100 ppm [3]

O=C(Nc1cccc(C(=O)Nc2c(Br)cc(C(F)(C(F)(F)F)C(F)(F)C(F)(F)F)cc2Br)c1F)c1ccc(F)cc1 (stereo not drawn) [6-1185]
≥ 70%: pest or weed control at 1 ppm [1] | pest or weed control at 1 ppm [2] | pest or weed control at 100 ppm [3]

N#Cc1ccc(C(=O)Nc2cccc(C(=O)Nc3c(Br)cc(C(F)(C(F)(F)F)C(F)(F)F)cc3C(F)(F)C(F)(F)F)c2F)cc1 [6-5911, N-(2-bromo-6-(perfluoroethyl)-4-(perfluoropropan-2-yl)phenyl)-3-(4-cyanobenzamide)-2-fluorobenzamide]
≥ 70%: pest or weed control at 1 ppm [1] | pest or weed control at 1 ppm [2] | pest or weed control at 100 ppm [3]

CN(C(=O)c1cccc(NC(=O)c2cccnc2Cl)c1)c1c(Br)cc(C(F)(C(F)(F)F)C(F)(F)F)cc1C(F)(F)F [8-304]
≥ 70%: pest or weed control at 1 ppm [1] | pest or weed control at 1 ppm [2] | pest or weed control at 100 ppm [3]

CN(C(=O)c1cccc(C#N)c1)c1cccc(C(=O)N(C)c2c(Br)cc(C(F)(C(F)(F)F)C(F)(F)F)cc2C(F)(F)F)c1 [9-290]
≥ 70%: pest or weed control at 1 ppm [1] | pest or weed control at 1 ppm [2] | pest or weed control at 100 ppm [3]

CN(C(=O)c1cccc(NC(=O)c2cccnc2Cl)c1)c1c(C(F)(F)F)cc(C(F)(C(F)(F)F)C(F)(F)F)cc1C(F)(F)F [8-840]
≥ 70%: pest or weed control at 1 ppm [1] | pest or weed control at 10 ppm [2] | pest or weed control at 100 ppm [3]

CN(C(=O)c1ccncc1)c1cccc(C(=O)Nc2c(Br)cc(C(F)(C(F)(F)F)C(F)(F)F)cc2C(F)(F)F)c1F [7-1639]
≥ 70%: pest or weed control at 1 ppm [1] | pest or weed control at 1 ppm [2] | pest or weed control at 100 ppm [3]

CN(C(=O)c1cccnc1Cl)c1cccc(C(=O)Nc2c(Br)cc(C(F)(C(F)(F)F)C(F)(F)F)cc2C(F)(F)F)c1F [7-1610]
≥ 70%: pest or weed control at 1 ppm [1] | pest or weed control at 1 ppm [2] | pest or weed control at 100 ppm [3]

O=C(Nc1cc(C(=O)Nc2c(Br)cc(C(F)(C(F)(F)F)C(F)(F)F)cc2C(F)(F)F)ccc1F)c1ccccc1 [6-3348, 3-benzamide-N-(2-bromo-4-(perfluoropropan-2-yl)-6-(trifluoromethyl)phenyl)-4-fluorobenzamide]
≥ 70%: pest or weed control at 1 ppm [1] | pest or weed control at 1 ppm [2] | pest or weed control at 100 ppm [3]
